Here are results for 23 molecules from US12692247B2, “Phenyl- and pyridopyrazole derivatives as inhibitors of DDR1” (Redx Pharma Limited, priority 2021, dated 2026).

In one test the target is T1, Recombinant human DDR2 (Homo sapiens, UniProt Q16832).
T1 construct: DDR2 (1.75 nM; aa427-855 containing a GST tag)
T1 sequence (Q16832 427-855): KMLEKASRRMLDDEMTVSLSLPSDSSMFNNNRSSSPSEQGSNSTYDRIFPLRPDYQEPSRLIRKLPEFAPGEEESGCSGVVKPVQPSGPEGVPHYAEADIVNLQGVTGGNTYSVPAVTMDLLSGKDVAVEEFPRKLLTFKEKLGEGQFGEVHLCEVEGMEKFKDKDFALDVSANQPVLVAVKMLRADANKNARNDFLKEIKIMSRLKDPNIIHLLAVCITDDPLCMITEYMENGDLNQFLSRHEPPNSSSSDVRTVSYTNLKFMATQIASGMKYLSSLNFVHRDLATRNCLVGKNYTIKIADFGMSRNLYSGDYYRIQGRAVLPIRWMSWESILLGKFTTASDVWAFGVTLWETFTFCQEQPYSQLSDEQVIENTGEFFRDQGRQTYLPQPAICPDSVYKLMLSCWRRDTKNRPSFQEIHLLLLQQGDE
Put plainly: LanthaScreen Eu Kinase Binding Assay, DDR2. The conditions noted are these: recombinant human DDR2 (1.75 nM; aa427-855, GST tag), Kinase Tracer 178 10 nM, time-resolved fluorescence, at least two independent replicates; read-out: DDR2 pIC50 (converted). The protocol:
(§1) DDR1 and DDR2 Biochemical Assay Method
(§2) The capacity of compounds to bind to DDR1 and DDR2 was quantified using a LanthaScreen Eu Kinase Binding Assay. Recombinant human DDR1 (2.5 nM; aa440-876 containing a GST tag) and DDR2 (1.75 nM; aa427-855 containing a GST tag) were diluted in assay buffer (50 mM HEPES pH7.3, 10 mM MgCl2, 1 mM EGTA and 0.01% Tween) with various concentrations of compound in a 384-well plate and a volume of 5 uL. After a 30-minute incubation at room temperature, 2.5 uL of Eu-anti GST antibody (diluted to 1 nM in assay buffer) plus Kinase Tracer 178 (diluted in assay buffer to 5 nM for DDR1 and 10 nM for DDR2) were added to the plate. Following 60-minute incubation at room temperature, time-resolved fluorescence was measured on a BMG Labtech PHERAstar plate reader. DMSO (1%) and reference compound (1 μM) were used to generate the Max and Min assay signals, respectively. Data was analysed using a four-parameter logistic model to calculate IC50 values, with at least two independent replicates were performed for each compound.
In general terms: TR-FRET usually uses a lanthanide donor and a delayed reading to cut background.

The next test concerns the target T2, Recombinant human DDR1 (Homo sapiens, UniProt Q08345).
T2 construct: Recombinant human DDR1 (2.5 nM; aa440-876 containing a GST tag)
The experiment in a line: LanthaScreen Eu Kinase Binding Assay, DDR1. The conditions noted are these: recombinant human DDR1 (2.5 nM; aa440-876, GST tag), Kinase Tracer 178 5 nM, time-resolved fluorescence, at least two independent replicates; read-out: DDR1 pIC50 (converted). Here is the method: as §1, §2

T2 sequence (Q08345 440-876 isoform Q08345-2): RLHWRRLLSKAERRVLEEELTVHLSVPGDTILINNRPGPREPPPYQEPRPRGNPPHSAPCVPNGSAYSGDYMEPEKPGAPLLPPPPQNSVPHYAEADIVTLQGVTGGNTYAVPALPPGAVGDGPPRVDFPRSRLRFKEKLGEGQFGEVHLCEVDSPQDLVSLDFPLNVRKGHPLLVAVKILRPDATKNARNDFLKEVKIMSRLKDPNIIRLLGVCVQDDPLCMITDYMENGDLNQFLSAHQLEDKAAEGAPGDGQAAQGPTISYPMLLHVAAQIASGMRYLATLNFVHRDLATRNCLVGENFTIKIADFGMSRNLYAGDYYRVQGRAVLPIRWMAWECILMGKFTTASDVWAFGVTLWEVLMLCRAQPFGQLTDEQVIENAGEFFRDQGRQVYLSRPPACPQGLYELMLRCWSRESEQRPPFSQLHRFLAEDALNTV

Regarding `CN(CC(F)(F)F)C(=O)Cn1ccc2cccc(Nc3ccc4c(cnn4C)c3)c2c1=O` [Example 23, N-methyl-2-[8-[(1-methylindazol-5-yl)amino]-1-oxo-2-isoquinolyl]-N-(2,2,2-trifluoroethyl)acetamide], the values for the IC50 on Recombinant human DDR2 and at Recombinant human DDR1 were 100 to 1000 nM and 10 to 100 nM, respectively.

Take `O=C(Cn1ccc2cccc(Nc3cc(Cl)c4[nH]ncc4c3)c2c1=O)NCC(F)(F)F` [Example 52, 2-[8-[(7-chloro-1H-indazol-5-yl)amino]-1-oxo-2-isoquinolyl]-N-(2,2,2-trifluoroethyl) acetamide]: the IC50 at Recombinant human DDR2 is 10 to 100 nM; on Recombinant human DDR1 it was below 10 nM.

Consider `CN(c1ccc2c(cnn2C)c1)c1cccc2ccn(CC(=O)Nc3cccc(C(F)(F)F)c3)c(=O)c12` [Example 144, 2-[8-[methyl-(1-methylindazol-5-yl)amino]-1-oxo-2-isoquinolyl]-N-[3-(trifluoromethyl)phenyl]acetamide], for which the IC50 on Recombinant human DDR2 was 100 to 1000 nM; at Recombinant human DDR1, 10 to 100 nM.

Regarding `Cn1ncc2cc(Nc3cccc4ccn(CC(=O)Nc5ccon5)c(=O)c34)ccc21` [Example 74, N-isoxazol-3-yl-2-[8-[(1-methylindazol-5-yl)amino]-1-oxo-2-isoquinolyl]acetamide], the figures for the IC50 on Recombinant human DDR2 and at Recombinant human DDR1 were 100 to 1000 nM and 10 to 100 nM, respectively.

In the case of `Cc1cn(-c2cc(NC(=O)Cn3ccc4cccc(Nc5ccc6c(cnn6C)c5)c4c3=O)cc(C(F)(F)F)c2)cn1` [Example 79, N-[3-(4-methylimidazol-1-yl)-5-(trifluoromethyl)phenyl]-2-[8-[(1-methylindazol-5-yl)amino]-1-oxo-2-isoquinolyl]acetamide], the values for the IC50 at Recombinant human DDR2 and at Recombinant human DDR1 were 100 to 1000 nM and 10 to 100 nM, respectively.

With `CC(=O)C1CCN(C(=O)Cn2ccc3cccc(Nc4ccc5c(cnn5C)c4)c3c2=O)CC1` [Example 80, 2-[2-(4-acetyl-1-piperidyl)-2-oxo-ethyl]-8-[(1-methylindazol-5-yl)amino]isoquinolin-1-one], the IC50 was at least 1000 nM at Recombinant human DDR2 and 100 to 1000 nM on Recombinant human DDR1.

As for `Cn1ncc2cc(Nc3cccc4ccn(CC(=O)Nc5cccc(C(C)(C)O)c5)c(=O)c34)ccc21` [Example 38, N-[3-(1-hydroxy-1-methyl-ethyl)phenyl]-2-[8-[(1-methylindazol-5-yl)amino]-1-oxo-2-isoquinolyl]acetamide], the results for the IC50 on Recombinant human DDR2 and on Recombinant human DDR1 were 10 to 100 nM and below 10 nM, respectively.

Take `CC(C)CNC(=O)Cn1ccc2cccc(Nc3ccc4c(cnn4C)c3)c2c1=O` [Example 9, N-isobutyl-2-[8-[(1-methylindazol-5-yl)amino]-1-oxo-2-isoquinolyl]acetamide]: the IC50 on Recombinant human DDR2 is 100 to 1000 nM; on Recombinant human DDR1, 10 to 100 nM.

For the molecule `Cn1ccc(NC(=O)Cn2ccc3cccc(Nc4ccc5c(cnn5C)c4)c3c2=O)n1` [Example 34, 2-[8-[(1-methylindazol-5-yl)amino]-1-oxo-2-isoquinolyl]-N-(1-methylpyrazol-3-yl)acetamide], the IC50 on Recombinant human DDR2 is at least 1000 nM; at Recombinant human DDR1, 100 to 1000 nM.

Take `CC(C(=O)NCC(F)(F)F)n1ccc2cccc(Nc3ccc4c(cnn4C)c3)c2c1=O` (stereo not shown) [Example 51, 2-[8-[(1-methylindazol-5-yl)amino]-1-oxo-2-isoquinolyl]-N-(2,2,2-trifluoroethyl) propanamide]: the IC50 at Recombinant human DDR2 and on Recombinant human DDR1 was at least 1000 nM throughout.

Take `Cn1ncc2cc(Nc3cccc4ccn(CC(=O)NCCC(F)(F)F)c(=O)c34)ccc21` [Example 44, 2-[8-[(1-methylindazol-5-yl)amino]-1-oxo-2-isoquinolyl]-N-(3,3,3-trifluoropropyl)acetamide]: the IC50 on Recombinant human DDR2 was at least 1000 nM; at Recombinant human DDR1, 100 to 1000 nM.

On to `Cn1cc(NC(=O)Cn2ccc3cccc(Nc4ccc5c(cnn5C)c4)c3c2=O)cn1` [Example 41, 2-[8-[(1-methylindazol-5-yl)amino]-1-oxo-2-isoquinolyl]-N-(1-methylpyrazol-4-yl)acetamide], for which the IC50 on Recombinant human DDR2 is at least 1000 nM; on Recombinant human DDR1, 100 to 1000 nM.

In the case of `CN(C)Cc1cc(NC(=O)Cn2ccc3cccc(Nc4ccc5c(cnn5C)c4)c3c2=O)cc(C(F)(F)F)c1` [Example 154, N-[3-[(dimethylamino)methyl]-5-(trifluoromethyl)phenyl]-2-[8-[(1-methylindazol-5-yl)amino]-1-oxo-2-isoquinolyl]acetamide], the IC50 on Recombinant human DDR2 is 10 to 100 nM; on Recombinant human DDR1, below 10 nM.

In the case of `C[C@H](NC(=O)Cn1ccc2cccc(Nc3ccc4c(cnn4C)c3)c2c1=O)C(F)(F)F` [Example 19, 2-[8-[(1-methylindazol-5-yl)amino]-1-oxo-2-isoquinolyl]-N-[(1S)-2,2,2-trifluoro-1-methyl-ethyl]acetamide], the IC50 on Recombinant human DDR2 was 10 to 100 nM; on Recombinant human DDR1 it was below 10 nM.

Take `Cn1ncc2cc(Nc3cccc4ccn(CC(=O)NC5CC5)c(=O)c34)ccc21` [Example 17, N-cyclopropyl-2-[8-[(1-methylindazol-5-yl)amino]-1-oxo-2-isoquinolyl]acetamide]: the IC50 was at least 1000 nM at Recombinant human DDR2 and 100 to 1000 nM on Recombinant human DDR1.

As for `Cn1ncc2cc(Nc3cccc4ccn(CC(=O)Nc5ccccc5)c(=O)c34)ccc21` [Example 39, 2-[8-[(1-methylindazol-5-yl)amino]-1-oxo-2-isoquinolyl]-N-phenyl-acetamide], the IC50 at Recombinant human DDR2 was at least 1000 nM; on Recombinant human DDR1, 10 to 100 nM.

`Cn1ncc2cc(Nc3cccc4ccn(CC(=O)NCC(F)(F)F)c(=O)c34)ccc21` [Example 3, 2-[8-[(1-methylindazol-5-yl)amino]-1-oxo-2-isoquinolyl]-N-(2,2,2-trifluoroethyl)acetamide]: the figures for the IC50 at Recombinant human DDR2 and on Recombinant human DDR1 were 100 to 1000 nM and 10 to 100 nM, respectively.

In the case of `CN(c1ccc2c(cnn2C)c1)c1cccc2ccn(CC(=O)NCC(F)(F)F)c(=O)c12` [Example 88, 2-[8-[methyl-(1-methylindazol-5-yl)amino]-1-oxo-2-isoquinolyl]-N-(2,2,2-trifluoroethyl) acetamide], the IC50 on Recombinant human DDR2 is 100 to 1000 nM; on Recombinant human DDR1 it was 10 to 100 nM.

Take `Cn1ncc2cc(Nc3cccc4ccn(CC(=O)N5CCC[C@H]5CF)c(=O)c34)ccc21` [Example 136, 2-[2-[(2S)-2-(fluoromethyl)pyrrolidin-1-yl]-2-oxo-ethyl]-8-[(1-methylindazol-5-yl)amino]isoquinolin-1-one]: the IC50 at Recombinant human DDR2 was 10 to 100 nM; at Recombinant human DDR1 it was below 10 nM.

As to `CC(=O)c1cccc(NC(=O)Cn2ccc3cccc(Nc4ccc5c(cnn5C)c4)c3c2=O)c1` [Example 32, N-(3-acetylphenyl)-2-[8-[(1-methylindazol-5-yl)amino]-1-oxo-2-isoquinolyl]acetamide], the figures for the IC50 on Recombinant human DDR2 and on Recombinant human DDR1 were 10 to 100 nM and below 10 nM, respectively.

As for `Cn1ncc2cc(Nc3cccc4ccn(CC(=O)Nc5ccc(C(F)(F)F)nc5)c(=O)c34)ccc21` [Example 59, 2-[8-[(1-methylindazol-5-yl)amino]-1-oxo-2-isoquinolyl]-N-[6-(trifluoromethyl)-3-pyridyl]acetamide], the figures for the IC50 at Recombinant human DDR2 and at Recombinant human DDR1 were 100 to 1000 nM and 10 to 100 nM, respectively.

Consider `Cn1nccc1NC(=O)Cn1ccc2cccc(Nc3ccc4c(cnn4C)c3)c2c1=O` [Example 36, 2-[8-[(1-methylindazol-5-yl)amino]-1-oxo-2-isoquinolyl]-N-(2-methylpyrazol-3-yl)acetamide], for which the IC50 at Recombinant human DDR2 is 100 to 1000 nM; at Recombinant human DDR1, 10 to 100 nM.

Take `Cc1n[nH]c2cc(Nc3cccc4ccn(CC(=O)Nc5cnoc5)c(=O)c34)ccc12` [Example 158, N-isoxazol-4-yl-2-[8-[(3-methyl-1H-indazol-6-yl)amino]-1-oxo-2-isoquinolyl]acetamide]: the IC50 at Recombinant human DDR2 and at Recombinant human DDR1 was 10 to 100 nM each time.
